A short description of series [1]: Measurement of lipophilicity (octanol / PBS pH 7.4). It counts as physicochemical. To be noted: for logP: octanol/PBS pH 7.4. As to the method:
The logP of [^18F]SDM-16 was determined by a method modified from previously published procedures. Briefly, an aliquot of […] (10 µCi) of the radioligand was added to a 2-mL microtube containing 0.8 mL of octanol and 0.8 mL of 1 × phosphate buffered saline (1 × PBS, pH 7.4). The mixture was vortexed for 30 s and then centrifuged at 2000 g for 2 min. A subsample of the octanol (0.1 mL) and 1 × PBS (0.5 mL) layers was evaluated with a gamma counter. The major portion of the octanol layer (0.5 mL) was diluted with another 0.3 mL of octanol, mixed with a fresh portion of 0.8 mL of PBS, vortexed, centrifuged, and analyzed as described above. This process was repeated until consistent log P values were obtained, with five consecutive equilibration procedures being performed for each logP measurement. Four separate measurements were performed for [^18F]SDM-16 on different days.

The nature of series [2]: Plasma free fraction (fp) by ultrafiltration. Particulars: monkey, plasma (separated from spiked whole blood). It counts as in vitro ADME, rhesus monkey. As to the method:
The unbound fraction of [^18F]SDM-16 in plasma (fp) of rhesus monkey was measured in triplicate using the ultrafiltration method. Briefly, [^18F]SDM-16 solution was added to 3 mL of whole blood. After incubation at ambient temperature for 5 min, the blood sample was centrifuged at 3900 rpm for 5 min. A sample of the supernatant plasma (0.3 mL) was loaded onto the reservoir of a Centrifree® Ultrafiltration device (Merck Millipore Ltd. Tullagreen, Carrigtwohill, Co. Cork, IRELAND) in triplicate and centrifuged at 1228 g for 20 min. The fp value was calculated as the ratio of radioactivity in the filtrate to that in the plasma.

On the set-up of series [3]: method as in PMID 33826008. To be noted: 30 min p.i.; cited from earlier work.
The subject of series [4] is SV2A. To be noted: calculated from K1/k2 using 2TCM-c; cited from earlier work.
For series [5] the following is noted: estimated from human; cited from earlier work.
Series [6] deals with T1, SV2A (Macaca mulatta, UniProt H9EQH8). Particulars: previously determined; cited from earlier work.
T1 sequence (H9EQH8 1-742): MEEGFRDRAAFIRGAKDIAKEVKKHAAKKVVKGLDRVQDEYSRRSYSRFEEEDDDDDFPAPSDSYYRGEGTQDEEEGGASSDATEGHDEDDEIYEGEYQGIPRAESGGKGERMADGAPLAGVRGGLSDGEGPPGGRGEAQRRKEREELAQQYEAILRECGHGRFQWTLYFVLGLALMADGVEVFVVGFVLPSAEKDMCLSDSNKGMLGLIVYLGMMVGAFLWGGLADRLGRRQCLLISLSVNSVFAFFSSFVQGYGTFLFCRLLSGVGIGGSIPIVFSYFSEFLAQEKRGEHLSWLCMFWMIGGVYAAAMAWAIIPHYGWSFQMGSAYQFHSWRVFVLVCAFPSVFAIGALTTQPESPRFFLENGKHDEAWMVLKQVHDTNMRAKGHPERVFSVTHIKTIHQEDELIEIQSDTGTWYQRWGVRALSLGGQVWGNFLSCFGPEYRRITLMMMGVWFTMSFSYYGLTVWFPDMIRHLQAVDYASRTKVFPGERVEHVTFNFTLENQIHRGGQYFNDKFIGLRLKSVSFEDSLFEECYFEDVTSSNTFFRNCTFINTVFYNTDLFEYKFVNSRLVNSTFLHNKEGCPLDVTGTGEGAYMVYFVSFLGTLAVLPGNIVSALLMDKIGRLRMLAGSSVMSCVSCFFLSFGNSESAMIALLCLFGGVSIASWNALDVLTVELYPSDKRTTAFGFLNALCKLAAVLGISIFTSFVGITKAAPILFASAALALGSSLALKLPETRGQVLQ
Series [7] has as its target T2, human SV2A (Homo sapiens, UniProt Q7L0J3). The series can be described thus: biochemical. As to the method:
Competition binding assays were performed twice independently using separate assay materials, with 4 technical replicates from each independent assay. […] Duplicate samples of human frontal cortex gray matter were homogenized in PBS buffer (10 mg/mL) for storage at − 80 °C and were diluted to a stock concentration of 4 mg/mL in PBS on the day of the assays. […] Working stocks of brain homogenate (100 µL; final concentration of 2 mg/mL), blocking ligands (20 µL), and radioligand (80 µL; final concentration 2.5 nM) were combined in quadruplicate wells of 96-well plates, sealed, and incubated at room temperature for 90 min on an orbital shaker set to 250 RPM. Reaction plates were filtered, rapidly washed with cold PBS, and dried. Forty microliters of Microscint-20 scintillation cocktail (Perkin-Elmer) was added to each well, and the plate was counted using a Microbeta2 plate reader (Perkin-Elmer). GraphPad Prism was used for curve fitting using the one-site Ki model.

Series [8] can be described thus: Adverse event observation during PET imaging. It counts as in vivo, rhesus monkeys. To be noted: tracer at microdose 0.646–0.926 µg; LEV i.v. 30 mg/kg. As to the method: (§1) Four monkeys were studied.
Adverse event was also not observed following LEV (i.v., 30 mg/kg) administration, including the displacement and blocking scan.

A short description of series [9]: Plasma radiometabolite analysis during PET scans. The class given is in vivo, rhesus monkeys. Particulars: 30 min p.i. The protocol: Arterial blood samples were collected during the PET scans to measure the radioactivity in plasma for generation of the metabolite-corrected arterial plasma input function. Plasma radiometabolite analysis was performed using the column-switching method, following a published protocol. Briefly, arterial blood samples were collected at 3-, 8-, 15-, 30-, 60-, 90-, 120-, and 180-min post-injection (p. i.), treated with urea (8 M), filtered, and injected onto a self-packed short column (4.6 × 19 mm) eluting with 1% MeCN in water at a flow rate of 2 mL/min. The sample was then back flushed onto a Gemini-NX column (5 μm, 4.6 mm × 250 mm) eluting with 40% MeCN/60% 0.1 M ammonium formate (pH 6.4) at a flow rate of 1.2 mL/min. The eluent was fraction-collected using an automated spectrum chromatography CF-1 fraction collector. Activity in the whole blood, plasma, filtrated plasma-urea mix, filters, and HPLC fractions were counted with automatic gamma well-counter (Wizard 2, PerkinElmer). The sample recovery rate, extraction efficiency, and HPLC fraction recovery were monitored. The unmetabolized [^18F]SDM-16 parent fraction was determined as the ratio of the sum of radioactivity in fractions containing the parent compound to the total amount of radioactivity collected and fitted with inverted Gamma4 approaches.
[^18F]SDM-16 had higher metabolite-corrected plasma SUV than the other SV2A radiotracers, indicating slower plasma clearance and higher metabolic stability (Fig. 2a). Whole-blood and plasma-input functions were highly consistent between the two animals, with a stable plasma to whole-blood ratio of 0.93 ± 0.13 over the entire 180-min acquisition period (Fig. S1).

A short description of series [10]: Free base fraction in plasma by modified Henderson-Hasselbalch equation (Eq. 1). To be noted: Eq. 1, plasma pH 7.4.
The test system of series [11] is SV2A. Description: Brain PET imaging with 1TC kinetic modeling. To be noted: for VT (baseline): 1TC.
Procedure: A total of 10 PET imaging experiments with [^18F]SDM-16 were performed in rhesus monkeys (Macaca mulatta) according to a protocol approved by the Yale University Institutional Animal Care and Use Committee (IACUC). Four monkeys were studied. […] Body temperature was maintained by a water-jacket heating pad. The animal was attached to a physiological monitor, and vital signs (heart rate, blood pressure, respirations, SPO2, EKG, ETCO2, and body temperature) were continuously monitored. A venous line was inserted in one limb for administration of radiotracer, displacement, and blocking drugs. A catheter was placed in the femoral artery in the other limb for blood sampling. Dynamic PET brain scans were performed on a Focus 220 system (Siemens Medical Solutions, Knoxville, TN, USA) with a reconstructed image resolution of approximately 1.5 mm. After a 9-min transmission scan, the radioligand was injected i.v. over 3 min. by an infusion pump. Dynamic PET scans were performed for 3 h (baseline and blocking scans) or 4 h (displacement scan).
PET images were reconstructed with built-in corrections for attenuation, normalization, scatter, randoms, and deadtime. PET brain images were registered to the animal’s MR image, which was subsequently registered to a brain atlas to define the regions of interest. Dynamic images were reconstructed using a Fourier rebinning and filtered back projection algorithm. A rhesus monkey brain atlas was used for generation of regions of interest (ROIs) and time − activity curves (TACs) for the following ROIs: amygdala, brain stem, caudate nucleus, centrum semiovale (CS), cerebellum, cingulate cortex, frontal cortex, globus pallidus, hippocampus, insula, nucleus accumbens, occipital cortex, pons, putamen, substantia nigra, temporal cortex, and thalamus.
Volume of distribution (VT, mL·cm^−3) values and the first-order kinetic rate constants of tracer (K1) were derived through 1-tissue (1T) compartment kinetic modeling with the metabolite-corrected arterial plasma input function, which was calculated as the product of the fitted total plasma curve and the parent radiotracer fraction curve. Nondisplaceable volume of distribution (VND) and SV2A occupancy by LEV was calculated using the Lassen plot [32]. Nondisplaceable binding potential (BPND) values were calculated from VT values using CS as reference region, or the VND derived from the blocking study, i.e., BPND = (VT, ROI − VT, CS)/ VT, CS or BPND = (VT/VND) -1.
The target of series [12] is T1, SV2A. Description: LEV blocking and displacement PET scans, Lassen plot. It counts as in vivo, rhesus monkeys (Macaca mulatta). The arrangement: from tissue; host or cells: brain of living rhesus monkeys (in vivo PET). Particulars: LEV 30 mg/kg i.v., Lassen plot with [^18F]SDM-16.
Source text: as §1
To examine the in vivo binding specificity, SV2A occupancy, and the extent of nonspecific binding in the monkey brain, we performed the Lassen plot analysis using data from the two baseline scans and one blocking scan in the same monkey.

Series [13] addresses T2, human SV2A. On the set-up: Duplicate samples of human frontal cortex gray matter were homogenized in PBS buffer; from tissue; host or cells: human frontal cortex gray matter homogenate. To be noted: other SV2A ligands; cited from earlier work.

SMILES strings stand for the structures. Read-outs that look alike come from different tables or passages of the source.

One may read the logP as a log measure of how a compound divides between an organic and an aqueous phase. Low readings indicate a more hydrophilic compound, high ones a more lipophilic compound. A word on the fraction unbound: it is the share of the substance not bound to proteins or other matrix. Higher therefore signals much free substance. Usually Ki stands for a measure of affinity in units of concentration, obtained from inhibition or displacement. By logD is commonly meant the decadic logarithm of the distribution of all forms, ionised or not, between an organic phase and buffer at a given pH. Low readings indicate a more hydrophilic compound, high ones a more lipophilic compound.

T2 sequence (Q7L0J3 whole entry): as the sequence (H9EQH8 1-742) above, with S64G, V572I counted along it

In the case of `O=C1C[C@H](c2cc(F)c(F)c(F)c2)CN1Cc1ccncc1[18F]` [[^18F]UCB-H], the logP in [1] is 2.31. This molecule showed a fraction unbound at 5 min in series [2] of 0.43. For the same molecule, the “parent fraction in plasma” value in series [3] is recorded as 30 ± 3%. In addition, in the series on SV2A [4], the “brain tissue free fraction fND” value is 6.1%. In addition, the “effective dose (ED)” value in [5] was 15.4 µSv/MBq. Moreover, the VND at SV2A [6] is on record as 7.89 mL/cm^3.
`Cc1nccn1CN1C[C@@H](c2cc(F)cc(F)c2)CC1=O` [SDM-16] registered a Ki on human SV2A [7] of 0.9 nM. Also, the adverse events entry in series [8] is listed as “no adverse events were observed”.
Consider `[11CH3]n1cncc1CN1C[C@@H](c2cc(F)cc(F)c2)CC1=O` [[^11C]UCB-A], for which the logD in series [1] (octanol / 1x PBS, pH 7.4) came to 1.1. Further, the logP in [1] was 1.1. The molecule also had a fraction unbound at 5 min in series [2] of 0.75. Besides, in series [9], the “parent fraction in plasma” value stood at 70 ± 7%. Further, the “fraction present in plasma as free base” value in series [10] stood at 49%. Further, the K1 amounted to 0.11 ± 0.01 mL/cm^3 per min with SV2A [11] (Amygdala); 0.15 ± 0.03 mL/cm^3 per min in the series on SV2A [11] (Anterior cingulate); 0.15 ± 0.03 mL/cm^3 per min with SV2A [11] (Brainstem); 0.13 ± 0.02 mL/cm^3 per min in the series with SV2A [11] (Caudate); 0.17 ± 0.03 mL/cm^3 per min with SV2A [11] (Cerebellum); 0.17 ± 0.034 mL/cm^3 per min in the series on SV2A [11] (Cingulate cortex). For the same molecule, the K1 worked out at 0.15 ± 0.03 mL/cm^3 per min in the series with SV2A [11] (Frontal cortex); 0.10 ± 0.01 mL/cm^3 per min with SV2A [11] (Globus pallidus); 0.12 ± 0.02 mL/cm^3 per min with SV2A [11] (Hippocampus); 0.15 ± 0.01 mL/cm^3 per min with SV2A [11] (Insular cortex); 0.14 ± 0.03 mL/cm^3 per min in the series with SV2A [11] (Mean ± SD over brain regions); 0.13 ± 0.02 mL/cm^3 per min in the series on SV2A [11] (Nucleus accumbens). Moreover, the K1 in the series with SV2A [11] (Occipital cortex) stood at 0.19 ± 0.03 mL/cm^3 per min; with SV2A [11] (Putamen) it was 0.17 ± 0.03 mL/cm^3 per min; in the series with SV2A [11] (Temporal cortex), 0.14 ± 0.02 mL/cm^3 per min; in the series with SV2A [11] (Thalamus), 0.14 ± 0.03 mL/cm^3 per min. Moreover, the “VT (baseline)” value in the series on SV2A [11] (Amygdala) was found to be 15.6 ± 8.2 mL/cm^3; in the series on SV2A [11] (Brainstem), 21.0 ± 4.9 mL/cm^3; with SV2A [11] (Frontal cortex) it was 49.0 ± 18.2 mL/cm^3; with SV2A [11] (Hippocampus), 31.4 ± 16.6 mL/cm^3; in the series on SV2A [11] (Insular cortex) it was 57.8 ± 26.9 mL/cm^3; in the series on SV2A [11] (Nucleus accumbens) it was 34.1 ± 4.8 mL/cm^3. Besides, the “VT (baseline)” value is listed as 47.0 ± 16.6 mL/cm^3 in the series on SV2A [11] (Occipital cortex) and 51.4 ± 26.2 mL/cm^3 in the series on SV2A [11] (Temporal cortex). Further, the “SUV (brain tracer uptake)” value with SV2A [11] (baseline scan, end of scan, frontal cortex and putamen) was “about 4”.
As to `CC[C@@H](C(N)=O)N1CCCC1=O` [Levetiracetam, levetiracetam, reference compound], the adverse events entry in series [8] is given as “not observed”. At SV2A [12], this molecule returned an SV2A occupancy of 79%. For the same molecule, the Ki on human SV2A [13] is 2100 nM.

These data come from publication PMC8940841, “A metabolically stable PET tracer for imaging synaptic vesicle protein 2A: synthesis and preclinical characterization of [^18F]SDM-16” (European Journal of Nuclear Medicine and Molecular Imaging, 2021).
